According to patent US20060276970A1, “Apparatus and method for the ozone preservation of crops” (Biofresh Limited, priority 2003, published 2006):

Experiments:
Botrytis cinerea [1] = assay: Grey mould lesion development on wound-inoculated tomato fruit in ozone-enriched air; format: in vivo; details: 50 ppb ozone, even for 2-8 h, 13° C., 95% RH
From the text: Fruit were wound-inoculated with a mycelial plug containing the pathogen^2 at day 0, transferred to charcoal-filtered air (CFA) or an ozone enriched CFA environment and then removed at intervals to 'clean air'. ^1 Monitored using duplicate photometric analysers calibrated to US-EPA standards ^2 plugs (2.5 mm diameter) were removed from the advancing margins of 3-day-old B. cinerea cultures (4-5-day-old in the case of A. alternaria) and inserted into a superficial wound made in the surface of the fruit (two wound-inoculations per fruit) FIG. 1. Experimental design: Fruit maintained in 'clean air' (CFA, →) or ozone (50 ppb or 200 ppb (→) and then inoculated (↓) with an agar plug containing the pathogen. Exposure to ozone performed in the dark at 13° C. and 95%. FIG. 2. Impacts of ozone-enrichment on the development of grey mould (Botrytis cinerea) on tomato (Lycopersicon esculentum […]) fruit wound-inoculated with a mycelial plug (Lycopersicon esculentum […]). Fruit were maintained in controlled environment chambers at 13° C. and 95% RH ventilated with charcoal-filtered 'clean' air (CFA, □) or CFA plus a trace level of ozone (50 ppb, ●). For experimental design see FIG. 1. Values represent mean (±SE) for 3-4 replicate fruit. Experiments repeated several times.

Alternaria alternata [2] = assay: Black spot development on wound-inoculated tomato fruit in ozone-enriched air; format: in vivo; details: 50 ppb ozone, even for 2-8 h
Description: The development of black spot (Alternaria alternata) was suppressed by more than 50% in fruit maintained in an atmosphere containing a trace level of ozone (50 ppb)—even for a relatively short period of time (2-8 h). Fruit were inoculated with a mycelial plug containing the pathogen and the experiment was performed according to design B (FIG. 1).
FIG. 3. Impacts of ozone-enrichment on the development of black spot (Alternaria alternata) raised on tomato fruit (Lycopersicon esculentum L. cv. Mareta) wound-inoculated with an agar plug containing mycelia of the pathogen. Fruit were maintained in controlled environment chambers at 13° C. and 95% RFL Chambers were ventilated with ‘clean’ (chracoal-filtered) air (CFA, □) or CFA plus a trace level of ozone (50 ppb, ●). Values represent mean (±SE) for 3-4 replicate fruit.

Alternaria alternata [3] = assay: Spore production and viability on wound-inoculated tomato fruit; format: in vivo; details: for Spore prod.: 50 ppb O3, tomato fruit, 13° C., 95% RH, after 9-12 d
Description: (§1) Fruit were wound-inoculated with a suspension containing c. 25×10^3 spores of Botrytis, Alternaria or Colletotrichum, then incubated in clean air or in an atmosphere containing a trace level of ozone (50 ppb) at 13° C., 95% RH. After 9-12 d, spores were washed from inoculated fruit, counts made on a haemocytometer and recovered spore aliquots inoculated onto agar. In vitro spore germination was monitored following 72 h incubation in ‘clean air’ or ‘clean air’ plus a trace level of ozone.

Botrytis cinerea [4] = assay: as above; format: in vivo; details: for Spore germ.: 50 ppb O3, recovered spores on agar, 72 h incubation; for Spore prod.: 50 ppb O3, tomato fruit, 13° C., 95% RH, after 9-12 d
Description: as §1

Colletotrichum coccodes = assay: as above; format: in vivo; details: for Spore germ.: 50 ppb O3, recovered spores on agar, 72 h incubation; for Spore prod.: 50 ppb O3, tomato fruit, 13° C., 95% RH, after 9-12 d
Description: as §1

Botrytis cinerea [5] = assay: Spore production on wound-inoculated easi-peel citrus, grapes and plums; format: in vivo; details: 100 ppb ozone, 13° C., 95% RH, grapes, plums
Description: Fruit were wound-inoculated with spore suspensions of Botrytis cinerea, then incubated in either clean air or an atmosphere containing a trace level of ozone (100 ppb) at 13° C. and 95% RH.
FIG. 4. Impact of a trace level of ozone enrichment (solid bars) on the development of Botrytis cinerea (based on spore counts) on easi-peel citrus, grapes & plums Fruit were wound-inoculated with spore suspensions containing 10^3 (‘low’ inoculum concentration), 10^5 (‘medium’ inoculum concentration) or 10^7 (‘high’ inoculum concentration) Botrytis cinerea, then incubated in clean air or an atmosphere containing a trace level of ozone (100 ppb) at 13° C. and 95% RH, After 8-12 d, spores were washed from inoculated fruit, counts made on a haemocytometer and aliquots incubated on agar. Control fruit were maintained in ‘clean air’ (cross-hatch bars).
Plates 2a & 2b. Impact of a trace level of ozone enrichment on the development of Botrytis cinerea on easi-peel citrus and plums. Fruit were wound-inoculated with/in spore suspensions containing 10^3 (‘low’ inoculum concentration), 10^5 (‘medium’ inoculum concentration) or 10^7 (‘high’ inoculum concentration) Botrytis cinerea, then incubated in clean air or an atmosphere containing a trace level of ozone (100 ppb) at 13° C. and 95% RR Control fruit were maintained in ‘clean air’.

[6] = test system: silver scurf (Helminthosporium solani); assay: Silver scurf development on stored potato tubers (spore counts, lesion area); format: in vivo; details: for Lesion development (%): potato tubers; for Spores/ml: potato tubers cv. Estima, 3.5° C. then 13° C.
Description: Tubers […] were washed and selected for similar levels of silver scurf (Helminthosporium solani) infection. Prior to storage, tubers were sprayed with water in order to simulate a condensation event to promote the development of the disease. Tubers were then placed in chambers maintained at 3.5° C.±0.5° C., >95% RH) ventilated with either 'clean air' (charcoal-filtered air'; CFA) or 'clean air' plus a trace level of ozone (200 ppb). After four weeks, half the tubers were removed, then the temperature raised to 13±0.5° C. […] A spore count was calculated for each tuber (n=10) using a haemocytometer. Additionally, the initial and final surface area covered in silver scurf lesions was measured using a […] devices image analyser. Taking into account shrinkage of the potato over the storage period, the percentage of each tuber covered in silver scurf was calculated.

[7] = test system: targeted fungal pathogens; assay: Colony development of fungal pathogens in vitro; format: cell-based; details: ozone concentrations upto 5.0 ppm
From the text: This implies that the observed suppression of spoilage organisms by ozone results from molecular/biochemical changes in the treated produce per se—presumably through subtle shifts in the manner in which plant tissue responds to challenge by pathogens (see FIG. 7).

Botrytis cinerea [8] = assay: Vaccination: tomato fruit exposed to ozone before wound-inoculation with grey mould; format: in vivo
Description: Tomato fruit were incubated for varying periods in ‘clean’ air or an atmosphere enriched with a trace level of ozone (50 ppb), then wound-inoculated with a mycelial plug of grey mould (Botrytis cinerea). Two experimental designs were adopted for the investigation of ‘memory’ effects induced by ozone:
(§2) (a) Fruit were incubated in clean air prior to transfer to an atmosphere containing a trace level of ozone in such a manner that fruit were wound-inoculated with the pathogen at the same physiological age. For gene expression studies, RNA was extracted from fruit snap-frozen in liquid nitrogen 24 h after wounding/inoculation, immediately following exposure to ‘clean air’ or ozone, and after 1 or 2 weeks' storage in ‘clean air’
Or, (b) Fruit were incubated in clean air or ozone and wound-inoculated with Botrytis cincerea either (i) immediately following the period of exposure, (ii) following 1 weeks' incubation in ‘clean air’ or (iii) following 2 weeks' incubation in ‘clean air’
FIG. 5. Experimental designs to test whether exposure to a trace level of ozone vaccinates produce against subsequent infection. Tomato fruit were maintained in charcoal filtered air (CPA, →) or ozone (→) prior to wound-inoculation (↓) with grey mould (Botrytis cinerea). […] Lesion development was monitored during storage in clean air, over a 7-d incubation period. […]

[9] = test system: Aco1, Aos, Chit3α, Chit9b, Glucac, Glucbs, Hpl; assay: Gene expression (RT-PCR) in tomato fruit induced by wounding/pathogen; format: in vivo, Lycopersicon esculentum L.; details: 50 ppb ozone
Description: as §2
Shifts in gene expression patterns were therefore consistent with the observed effects of trace ozone-enrichment on the development of a variety of fungal pathogens.
FIG. 7. Ozone-induced suppression of gene expression (probed by RT-PCR) induced by wounding/pathogen. Aco1 (aminocyclopropancarboxylic acid oxidase) and Aos (allene-oxide synthase) govern the production of ethylene and jasmonate, respectively. These are key signalling molecules. Chit3a (chi3 type chitinase acidic), Chit9b (chi9-type chitinase basic), Glucac (β-1-3 glucanase acidic), Glucbs (β-1-3 glucanase basic), and Hpl hydroperoxide lyase) are all involved with defence against pathogens and other stresses. Gapdh was used as the control gene. Measurements made on tomato fruit (Lycopersicon esculentum L.) incubated throughout in controlled environment chambers maintained at 13° C. and 95% RH and ventilated with clean air or 50 ppb ozone. FIG. 7a, immediate; FIG. 7b, 1 week; FIG. 7c 2 weeks.

[10] = 200 ppb ozone weeks 1-4, NFA weeks 5-8
[11] = 200 ppb ozone weeks 1-4 and weeks 5-8

## O=[O+][O-] [ozone]
Botrytis cinerea [1]
  Grey mould lesion development: dramatically suppressed
Alternaria alternata [2]
  Suppression of black spot development: more than 50%
Alternaria alternata [3]; 50 ppb O3, recovered spores on agar, 72 h incubation
  Spore germ.: 99.86 ± 0.137
Alternaria alternata [3]
  Spore prod.: dramatically reduced
Alternaria alternata [3]; listed as O3
  Spore prod.: 5.83 ± 0.645
Botrytis cinerea [4]
  Spore germ.: significantly reduced
  Spore prod.: dramatically reduced
Botrytis cinerea [4]; listed as O3
  Spore germ.: 96.76 ± 0.613
  Spore prod.: 7.50 ± 1.510
Colletotrichum coccodes
  Spore germ.: significantly reduced
  Spore prod.: dramatically reduced
Colletotrichum coccodes; listed as O3
  Spore germ.: 52.50 ± 4.550
  Spore prod.: 2.44 ± 0.526
Botrytis cinerea [5]
  Development of the pathogen (based on spore production): dramatically reduced
[6]; [10]
  Lesion development (%): 21.34 a %
  Spores/ml: 3.9 × 10^6 c Spores/ml
[6]; [11]
  Lesion development (%): 12.81 b %
  Spores/ml: 1.7 × 10^6 b Spores/ml
[7]
  Direct effects on colony development in vitro: No direct effects
Botrytis cinerea [8]; tomato fruit transferred to clean air
  Persistence of vaccination effect after removal from ozone: persisted for up to two weeks
Botrytis cinerea [8]; trace level of ozone (50 ppb), even 2-8 h, before inoculation, tomato fruit
  Pathogen development after prior exposure to ozone: marked suppression
[9]
  Persistence of gene expression effects after transfer to clean air: persisted for upto two weeks
[9]; 13° C., 95% RH
  Expression of signal-transduction and defence genes: decline
